The results in this text go back to patent US20260308158A1, “TARGETING RNAS ASSOCIATED WITH TAUOPATHIES WITH SMALL MOLECULES” (University of Florida Research Foundation, Incorporated, priority 2023, published 2026).

One test relates to DDPAC SRE RNA. The test is described as follows: In vitro Chem-CLIP, DDPAC SRE RNA. It is filed as binding. How it is done:
(§1) In Vitro Chemical Cross-linking and Isolation by Pull Down (Chem-CLIP) and Competitive Chem-CLIP (C-Chem-CLIP). Growth medium [Dulbecco's modified eagle medium (DMEM; corning, 10-013-CM) with 1× Glutagro (corning)] and 10% (v/v) fetal bovine serum (FBS; Sigma, 12003C) was inactivated by heating at 95° C. for 15 min and slowly cooling to room temperature. Approximately 10,000 counts of 32P 5′-end labeled tau WT, DDPAC, WT+I17T, or DDPAC+I17T RNA were folded in 10 μL growth medium by heating at 65° C. for 5 min and slowly cooling to room temperature. Chem-CLIP probe 3 or negative control probe 4 was then added into the folded RNA in a total volume of 20 μL, and the mixtures were incubated at 37° C. for 1 h. For C-Chem-CLIP, dilutions of competing compound 2 were incubated with RNA for 30 min before adding 3. […]
(§2) The Chem-CLIP probe 3 or control probe 4 was then clicked to disulfide biotin azide (2 μL of 10 mM solution prepared in DMSO solution per sample; Click Chemistry Tools, catalog no. 1168-10). […] The radioactive signal from bound RNAs (on the beads) and unbound RNAs (in the wash buffer) was measured by using a Beckman Coulter LS6500 Liquid Scintillation Counter as Rbound and Runbound. Enrichment was calculated as the percentage of radiolabeled RNA captured by beads calculated as Rbound/(Rbound+Runbound).

For test [1], the system named is DDPAC I17T MAPT mini-gene pre-mRNA. Briefly: Chem-CLIP in HeLa cells transfected with DDPAC I17T mini-gene. It is filed as cell-based. The note with it: 1.5 μM. The method, then:
(§3) Measuring Cellular Occupancy by Chem-CLIP and C-Chem-CLIP. LAN5 cells were grown to ~80% confluency in 100 mm diameter dishes. HeLa cells were transfected as described in the Luciferase Reporter Assay to Study Exon 10 Alternative Splicing except they were re-plated in 100 mm diameter dishes and grown to ~80% confluency (~1 day). The cells were then treated with 1.5 μM of 3 or 4 for 12 h. For C-Chem-CLIP, dilutions of competing compounds 1 or 2 were pre-incubated with cells for 12 h prior to adding 3. After addition of 3, the cells were incubated for an additional 12 h. After the treatment period, whether for Chem-CLIP or C-Chem-CLIP studies, the cells were washed with 10 mL of 1×DPBS. Ice-cold 1×DPBS (10 mL) was then added to the plate followed by irradiation with 365 nm light in a UV Stratalinker 2400 (Stratagene). Cells were scraped with a cell scraper, transferred to a 15 mL conical vial, and collected by centrifugation. Total RNA was extracted using TRIzol LS Reagent (Invitrogen) per the manufacturer's protocol. […]
(§4) RT-qPCR was performed on RNA samples before and after pull-down as described in Real-Time Quantitative PCR to enable calculation of fold enrichment in the pulled down samples. Relative fold enrichment of tau pre-mRNA was measured using Equation 3: […]

Test [2] relates to MAPT pre-mRNA in LAN5 cells. Briefly: Chem-CLIP-Map-Seq in LAN5 cells. In kind it is cell-based. The note with it: 3 at 1.5 μM. How it is done: Chem-CLIP-Map-Seq. Chem-CLIP-Map-Seq was performed as previously described.^32 Briefly, LAN5 cells were grown to ~80% confluency in 100 mm diameter dishes and treated with 1.5 μM of 3 for 12 h. Total RNA was extracted and pulled down as described in Measuring Cellular Occupancy by Chem-CLIP and C-Chem-CLIP. RT was carried out using 1 μg of RNA pulled down by 3, […] of a MAPT gene-specific primer (5′-[…] (SEQ ID NO: 7)), and SuperScript III (Invitrogen, 18080400) in a total volume of 10 μL per the manufacturer's protocol.
After digestion with RNase A and RNase H (part of the Superscript III protocol), the cDNA from the RT reaction was cleaned up using RNA Clean XP beads (Beckman Coulter) according to the manufacturer's protocol. The purified cDNA was ligated to a 3′ ssDNA adaptor (5′-Phosphate-[…]-[…]-3C spacer (SEQ ID NO: 8)) by incubating 2 μL 10× T4 RNA Ligase Buffer, 1 μL of 1 mM ATP, 10 μL 50% (w/v) PEG 8000, 5 μL cDNA, 1 μL of 20 μM ssDNA adaptor, and 1 μL of T4 RNA Ligase [New England BioLabs, Inc. (NEB)]. The ligated cDNA was purified again with RNAClean XP beads as described above.
PCR amplification was performed with the purified ligated cDNA by using Phusion polymerase (NEB) with cycling conditions of 98° C. for 30 s, 65° C. for 20 s, and 72° C. for 60 s and forward (5′-[…] (SEQ ID NO: 9)) and reverse (5′-[…] (SEQ ID NO: 10)) primers for 25 cycles. […]

The next test concerns DDPAC I17T mutant RNA. Briefly: In vitro Chem-CLIP, DDPAC I17T RNA. The note with it: 50 μM. It is filed as binding. How it is done: as §1, §2
A further test has as its system WT SRE RNA. The test is described as follows: In vitro Chem-CLIP, WT SRE RNA. In kind it is binding. The method, then: as §1, §2
For test [3], the system named is endogenous MAPT pre-mRNA in LAN5 cells. The test is described as follows: Chem-CLIP / C-Chem-CLIP in LAN5 cells. It is filed as cell-based. The note with it: 3 at 1.5 μM. The method, then: as §3, §4
Test [4] relates to WT MAPT mini-gene pre-mRNA. The test is described as follows: Chem-CLIP / C-Chem-CLIP in HeLa cells transfected with WT mini-gene. It is filed as cell-based. The note with it: 3 at 1.5 μM, HeLa WT mini-gene. The method, then: as §3, §4
The next test concerns WT I17T mutant RNA. The test is described as follows: In vitro Chem-CLIP, WT I17T RNA. It is filed as binding. The note with it: 50 μM. The method, then:
as §1, §2

Test [5] concerns DDPAC MAPT mini-gene pre-mRNA. Briefly: Chem-CLIP / C-Chem-CLIP in HeLa cells transfected with DDPAC mini-gene. In kind it is cell-based. The note with it: 3 at 1.5 μM, HeLa DDPAC mini-gene. The method, then:
as §3, §4

For test [6], the system named is WT I17T MAPT mini-gene pre-mRNA. Briefly: Chem-CLIP in HeLa cells transfected with WT I17T mini-gene. In kind it is cell-based. The note with it: 1.5 μM. The method, then:
as §3, §4

[7] abbreviates: in vitro Chem-CLIP, read-out: IC50 for engaging and pull-down of RNA.

SMILES strings stand for the structures.

A word on the IC50: it is the concentration that gives 50% inhibition. In the case of `C#CCCC1(CCC(=O)NCCN(CCCc2cnc(N)cc2OC)CCCn2cnc3c4ccccc4n(C)c3c2=O)N=N1` [Compound 3], the maximum percent pull-down with DDPAC SRE RNA (10 and 50 μM) was ~ 40%; in the test with WT SRE RNA (10 and 50 μM), ~ 40%. In addition, the IC50 with DDPAC SRE RNA (setting [7]) and in the test on WT SRE RNA (setting [7]) was ~1000 nM throughout. Moreover, the “enrichment of mutant reporter” value in test [1] and in [6] was “nor was enrichment observed” each time. The “cross-linking site in MAPT RNA” value in test [2] is “cross-linking occurred to the G in the 5′ CG closing base pair of the A-bulge”. For the same compound, the “percent pull-down (engagement)” value is listed as 9±0.7% in the test on DDPAC I17T mutant RNA and 15±0.9% in the test on WT I17T mutant RNA. In addition, the “enrichment of MAPT pre-mRNA” value in test [3] worked out at 3.6±0.2 fold. Moreover, the entries for the “enrichment of MAPT reporter” value in test [4] and in test [5] were 3.9±0.1 fold and 3.8±0.1 fold, respectively.
